The source of these data is patent US9491960B2, “Sweetener” (Tate & Lyle Ingredients Americas LLC, priority 2013, dated 2016).

Where two headings read alike, the source gives them in different places. Marks after values point to notes of the source that are not given here.

Experiment [1] can be described thus: Round table sensory evaluation by test panelists: sucrose equivalent value (SEV) against sucrose reference samples. Type of experiment: in vivo. Particulars: for Sweetness (mean SEV, Duncan grouping) / Sweetness (mean SEV, two-way ANOVA, level of significance Duncan): 10 SEV solutions in neutral pH water; for Sweetness (mean SEV, Duncan grouping): level of significance for the grouping (Duncan): 5%; for Sweetness (mean SEV, two-way ANOVA, level of significance Duncan): superscripts = Duncan level of significance; for Mean 1 (mean sucrose equivalent value, SEV) / Median 1 (median sucrose equivalent value, SEV): equal sweet 10 SEV concentrations in neutral pH water, references 4%-14% sucrose, room temperature. Here is the method: Round table evaluations were performed with test panelists. Equal sweet 10 SEV concentrations in neutral pH water were made for allulose, fructose and sucralose, as well as a composition comprising allulose, fructose and sucralose. The components of the test compositions are described in the below tables. The mixed compositions were calculated using the Beidler mixture equation for the sweeteners. The Beidler mixture equation for sweeteners is as follows: […]
The concentration of each component in the mixture in ppm is divided by SEV (c/R) and is plotted against concentration, c. The slope of the linear regression is the maximum SEV (Rmax). The y-intercept of the linear regression multiplied by Rmax is the half-maximal sweetness concentration, 1/K. Rmax and 1/K are the two parameters used in the Beidler equation.
The equal-molar mixture was tested against reference samples for the panelists to determine SEV values. […] The test samples were served in 2 ounce (approximately 60 ml) soufflé cups coded with 3-digit codes at room temperature. A two minute wait period between samples was enforced. Water and unsalted crackers was available for the panelists to clear their palates before and during testing. EyeQuestion, software distributed by Logic8 BV of Elst, The Netherlands, was used for ballot development and recording of results. Results were collected in EyeQuestion for calculating approximate SEV level of each test sample. The test products analyzed in this experiment are described below in Table 1.

For experiment [2] the following is noted: cited from earlier work.

As for `O=C(CO)[C@@H](O)[C@H](O)[C@H](O)CO` [Fructose, fructose], in experiment [1], the “Sweetness (mean SEV, Duncan grouping)” value is 10.14^b-c; the “Sweetness (mean SEV, two-way ANOVA, level of significance Duncan)” value turned out to be 10.14; the “Mean 1 (mean sucrose equivalent value, SEV)” value was found to be 10.14; the “Median 1 (median sucrose equivalent value, SEV)” value came out at 10.
For sucralose, in experiment [1], the “Sweetness (mean SEV, Duncan grouping)” value is recorded as 9.29^c; the “Sweetness (mean SEV, two-way ANOVA, level of significance Duncan)” value was 9.29; the “Mean 1 (mean sucrose equivalent value, SEV)” value came out at 9.286; the “Median 1 (median sucrose equivalent value, SEV)” value stood at 10. Further, in experiment [2] (times as sweet as sucrose), the “Sweetness relative to sucrose” value is reported as “approximately 600 times”.
On to `O=C(CO)C(O)C(O)C(O)CO` (centres unmarked) [Allulose, allulose], for which, in experiment [1], the “Sweetness (mean SEV, Duncan grouping)” value is reported as 10.14^b-c; the “Sweetness (mean SEV, two-way ANOVA, level of significance Duncan)” value amounted to 10.14; the “Mean 1 (mean sucrose equivalent value, SEV)” value was found to be 10.14; the “Median 1 (median sucrose equivalent value, SEV)” value was 10. In addition, the “Sweetness relative to sucrose” value in experiment [2] (% of the sweetness of sucrose) is “around 70%”.
